Where “and” joins values, the source holds several entries; their conditions need not be identical. Identical values can stand only once. Like-named read-outs stand apart in the source and are kept apart here.
How the values were obtained:
[1] = format: physicochemical

SMILES: O=[N+]([O-])c1ccccc1O [2NP, 2-nitrophenol]
- effective mobility ([1]; pH 6.4): 12.2(±0.3)·10^−9 m^2/Vs and 13.4(±0.3)·10^−9 m^2/Vs
- effective mobility ([1]; pH 6.8): 15.8(±0.2)·10^−9 m^2/Vs and 16.3(±0.2)·10^−9 m^2/Vs
- pKa (physchem): 6.7

Source: patent US8562804B2 (priority 2006, dated 2013)
